# Patent US20210206763A1, “Anti-Proliferative Agents” (FEMTOGENIX LIMITED, priority 2015, published 2021)
# Key:
# [1] = system: AP-1 Transcription Factor duplex DNA sequence; experiment: FRET DNA melting assay with transcription factor duplex DNA; type: binding; details: 1 μM ligand concentration; 24 hours incubation
# Protocol: (§1) Oligonucleotide sequences used for the FRET assays were purchased from Eurogentec, Southampton, UK: TAMRA (6-carboxytetramethylrhodamine) and FAM (6-carboxyfluorescein) are acceptor and donor fluorophores, respectively. From 20 μM stock solutions, 400 nM solutions in FRET buffer (optimized as 50 mM potassium, 50 mM cacodylate, pH 7.4) were prepared prior to use. The oligonucleotides were annealed through heating the samples to 90° C. for 10 mins followed by cooling to room temperature and storing at this temperature for 5 h. Dilutions from the initial 5 mM DMSO stock solution were performed using FRET buffer. Annealed DNA (50 μL) and sample solution (50 μL) were added to each well of a 96-well plate (MJ Research, Waltham, Mass.), and processed in a DNA Engine Opticon (MJ Research). Fluorescence readings were taken at intervals of 0.5° C. over the range 30-100° C., with a constant temperature maintained for 30 seconds prior to each reading. Incident radiation of 450-495 nm was used, with detection at 515-545 nm. The raw data were imported into the program Origin (Version 7.0, OringinLab Corp.), and the graphs were smoothed using a 10-point running average, and then normalized. Determination of melting temperatures was based on values at the maxima of the first derivative of the smoothed melting curves using a script. The difference between the melting temperature of each sample and that of the blank (ΔTm) was used for comparative purposes.
# [2] = system: NFκB Transcription Factor duplex DNA sequence; experiment: as above; type: binding; details: 1 μM ligand concentration; 24 hours incubation
# Protocol: as §1
# [3] = system: NFκB transcription factor binding sequence (duplex oligonucleotide); experiment: DNA adduct formation by HPLC; details: 4:1 molar ratio ligand:oligonucleotide, room temperature
# Protocol: Interaction of C8-linked PDD monomers with duplex transcription factor consensus sequence was studied with an HPLC assay utilizing a X-bridge MS C18 2.5 μM OST column (2.3×50 mm) and a gradient of 40% acetonitrile/water and 100 mM TEAB ([…])/water as mobile phase with a flow rate of 0.5 mL/min and UV detection at 254 nm. A 4:1 molar ratio of ligand:oligonucleotide was used, with each single-stranded oligonucleotide dissolved in 1 M ammonium acetate to form stock solutions of 1 mM. The oligonucleotides were initially annealed by heating their 1 mM solutions to 70° C. for 10 mins followed by gradual cooling over 8 hours and storage overnight at −20° C. Working solutions of oligonucleotides of 25 μM were then prepared by diluting the annealed stock solutions with 100 mM ammonium acetate. The ligands were dissolved in DMSO to form a stock solution of 10 mM which was stored at −20° C. for no longer than four months. Working solutions of the drug of 100 μM were prepared by diluting the stock solution with 100 mM ammonium acetate. The working solutions of the ligands were added to the working solution the oligonucleotides at RT, and the mixture incubated for different time intervals at room temperature.
# [4] = system: MDA MB 231 (Triple negative breast cancer cell line); experiment: MTT cytotoxicity assay of C8-linked PDD monomers; type: cell-based; details: Homo sapiens, 72 hours exposure
# Protocol: (§2) MDA MB231 (triple negative human breast cancer) was obtained from the American Type Culture Collection. The cell-line was maintained in monolayer culture in 75 cm^2 flasks (TPP, Switzerland) under a humidified 5% CO2 atmosphere at 37° C. The MDA MB231 cell line was maintained in high glucose DMEM (4.5 g/l; Invitrogen), foetal bovine serum (10%, Biosera UK), non-essential amino acids (ix; Invitrogen), L-glutamine (2 mM; Invitrogen) and Penicillin-Streptomycin (1% v/v, Invitrogen). The HeLa cell line was maintained in Dulbecco's Modified Eagles Media (DMEM; Invitrogen) supplemented with foetal bovine serum (10% v/v; Invitrogen), L-glutamine (2 mM; Invitrogen), non-essential amino acids (lx; Invitrogen) and Penicillin-Streptomycin (1% v/v, Invitrogen). For passaging, cells were washed with PBS (GIBCO 14040, Invitrogen, UK), incubated with trypsine (GIBCO 25300, Invitrogen, UK), and re-seeded into fresh medium. For seeding, cells were counted using a Neubauer haemocytometer (Assistant, Germany) by microscopy (Nikon, USA) on a non-adherent suspension of cells that were washed in PBS, trypsinised, centrifuged at 8° C. at 8000 rpm for 5 min and re-suspended in fresh medium.
# (§3) The cells were grown in normal cell culture conditions at 37° C. under a 5% CO2 humidified atmosphere using appropriate medium. The cell count was adjusted to 10^5 cells/ml and 5,000-20,000 cells were added per well depending on the cell line. The cells were incubated for 24 hours and 1 μl of the appropriate inhibitor concentrations were added to the wells in triplicates. After 72 h of continuous exposure to each compound, the cytotoxicity was determined using the 3-(4,5-Dimethylthiazol-2-yl)-2,5-diphenyltetrazolium bromide (MTT) (Lancaster Synthesis Ltd, UK) colorimetric assay.^[34 Absorbance was quantified by spectrophotometry at λ=570 nm (Envision Plate Reader, PerkinElmer, USA). IC50 values were calculated by a dose-response analysis using the GraphPad Prism® software.
# [5] = system: HeLa (Cervical cancer cell line); experiment: MTT cytotoxicity assay of C8-linked PDD monomers; type: cell-based; details: Homo sapiens, 72 hours exposure
# Protocol: as §2, §3
Compound,ΔTm AP-1 (1st transition) [1] [°C],ΔTm AP-1 (2ND transition) [1] [°C],ΔTm NFκB (1st transition) [2] [°C],ΔTm NFκB (2ND transition) [2] [°C],DNA adduct formation (HPLC chromatogram) [3],IC50 [4] [nM],IC50 [5] [nM]
"COC(=O)c1cc2cc(NC(=O)c3cc(NC(=O)CCCOc4cc5c(cc4OC)C(=O)N4CCCC[C@H]4C=N5)cn3C)ccc2s1 [Compound 13, Methyl (S)-5-(4-(4-((2-methoxy-12-oxo-6a,7,8,9,10,12-hexa-hydrobenzo[e]pyrido[1,2-a][1,4]diazepin-3-yl)oxy)butanamido)-1-methyl-1H-pyrrole-2-carboxamido)benzo[b]thiophene-2-carboxylate]",11,19,12,23,DNA adduct formation,64 ± 9.6,0.6 ± 0.4
"COC(=O)c1cc2cc(NC(=O)c3nc(NC(=O)CCCOc4cc5c(cc4OC)C(=O)N4CCCC[C@H]4C=N5)cn3C)ccc2s1 [Compound 17, Methyl (S)-5-(4-(4-((2-methoxy-12-oxo-6a,7,8,9,10,12-hexa-hydrobenzo[e]pyrido[1,2-a][1,4]diazepin-3-yl)oxy)butanamido)-1-methyl-1H-imidazole-2-carboxamido)benzo[b]thiophene-2-carboxylate]",13,18,11,26,DNA adduct formation,21 ± 1.8,1.2 ± 0.8
"COC(=O)c1cc(-c2ccc(NC(=O)c3nc(NC(=O)CCCOc4cc5c(cc4OC)C(=O)N4CCCC[C@H]4C=N5)cn3C)cc2)cn1C [Compound 20, Methyl (S)-4-(4-(4-(4-((2-methoxy-12-oxo-6a,7,8,9,10,12-hexahydrobenzo[e]pyrido[1,2-a][1,4]diazepin-3-yl)oxy)butanamido)-1-methyl-1H-imidazole-2-carboxamido)phenyl)-1-methyl-1H-pyrrole-2-carboxylate]",8,13,9,12,DNA adduct formation,0.3 ± 0.22,0.14 ± 0.09
"COC(=O)c1cc(-c2ccc(NC(=O)c3cc(NC(=O)CCCOc4cc5c(cc4OC)C(=O)N4CCCC[C@H]4C=N5)cn3C)cc2)cn1C [Compound 24, Methyl (S)-4-(4-(4-(4-((2-methoxy-12-oxo-6a,7,8,9,10,12-hexahydrobenzo[e]pyrido[1,2-a][1,4]diazepin-3-yl)oxy)butanamido)-1-methyl-1H-pyrrole-2-carboxamido)phenyl)-1-methyl-1H-pyrrole-2-carboxylate]",9,15,10,14,DNA adduct formation,0.8 ± 0.66,1 ± 0.12
